Assay in all cases: Antimicrobial activity in formulation: colony counts over 28 days, synergy by Kull equation
Common to all, as to settings: for Relative colony counts: relative to day 0; for Colony counts: counts <10 set to 10

Assay [1] deals with S. aureus. Format: cell-based, Staphylococcus aureus. From the text:
(§1) Synergistic antimicrobial activity of lactate esters and other flavor and fragrance ingredients against different microorganisms relevant for cosmetics were investigated.
(§2) To calculate the synergism between lactate esters and other flavor and fragrance ingredients, the Kull equation^1,2 was used ^1 Kull, F. C., Eismann, P. C., Sylvestrowicz, H. D., and R. L. Mayer (1961). Mixtures of Quaternary Ammonium Compounds and Long-chain Fatty Acids as Antifungal Agents. Applied Microbiology 9, 538-541.^2 Steinberg, D. C. (2000). Measuring Synergy. Cosmetics & Toiletries 115 (11), 59-62. SI=(Cmixture×PA)/CA+(Cmixture×PB)/CB where • SI is the Synergy Index according to Kull^1), 2) • CA is the cell count for substance A • CB is the cell count for substance B • Cmixture is the cell count for the mixture of substances A and B • PA is the proportion of the substance A in the mixture • PB is the proportion of the substance B in the mixture.
(§3) Colony counts of <10 were arbitrarily set to 10, in order to allow for synergy calculations with the above equation. The abbreviation “n.a.” means not applicable.

The test system of assay [2] is A. brasiliensis. The assay is classed as cell-based, Aspergillus brasiliensis. From the text:
Synergistic antimicrobial activity of lactate esters and other flavor and fragrance ingredients against different microorganisms relevant for cosmetics were investigated. To calculate the synergism between lactate esters and other flavor and fragrance ingredients, the Kull equation^1,2 was used ^1 Kull, […]., and R. L. Mayer (1961). Mixtures of Quaternary Ammonium Compounds and Long-chain Fatty Acids as Antifungal Agents. Applied Microbiology 9, 538-541.^2 Steinberg, D. C. (2000). Measuring Synergy. Cosmetics & Toiletries 115 (11), 59-62. SI=(Cmixture×PA)/CA+(Cmixture×PB)/CB where • SI is the Synergy Index according to Kull^1), 2) • CA is the cell count for substance A • CB is the cell count for substance B • Cmixture is the cell count for the mixture of substances A and B • PA is the proportion of the substance A in the mixture • PB is the proportion of the substance B in the mixture. […] The abbreviation “n.a.” means not applicable.

Assay [3] relates to E. coli. Format: cell-based, Escherichia coli.
Text: as §1, §2, §3

In assay [4] the test system is C. albicans. Format: cell-based, Candida albicans.
Text: as §1, §2, §3

Take `CC(O)C(=O)OCc1ccccc1` (stereo not shown) [BL, benzyl lactate]: the Relative colony counts in assay [1] (1%, day 0) is on record as 1.0000; in assay [1] (1%, day 2), 0.0006; in assay [1] (1%, day 7), 0.0000; in assay [1] (1%, day 14) it was 0.0000; in assay [1] (1%, day 28), 0.0000; in assay [2] (1%, day 0), 1.0000. Also, the Relative colony counts in assay [2] (1%, day 2) is listed as 0.0931; in assay [2] (1%, day 7), 0.0016; in assay [2] (1%, day 14), 0.0000; in assay [2] (1%, day 28), 0.0000. The Colony counts in assay [1] (1%, day 2) was 1.600 cfu/g formulation; in assay [1] (1%, day 7) it was 10 cfu/g formulation; in assay [1] (1%, day 14), 10 cfu/g formulation; in assay [1] (1%, day 28), 10 cfu/g formulation; in assay [2] (1%, day 2), 270.000 cfu/g formulation; in assay [2] (1%, day 7), 4.500 cfu/g formulation. For the same compound, the Colony counts in assay [2] (1%, day 14) worked out at 110 cfu/g formulation; in assay [2] (1%, day 28), 10 cfu/g formulation.
`COc1ccc(C(=O)O)cc1` [AAc, p-anisic acid]: the Relative colony counts in assay [1] (0.5%, day 0) is 1.0000; in assay [1] (0.5%, day 2), 0.8095; in assay [1] (0.5%, day 7), 0.0001; in assay [1] (0.5%, day 14), 0.0000; in assay [1] (0.5%, day 28), 0.0000; in assay [2] (0.5%, day 0), 1.0000. Further, the Relative colony counts worked out at 0.3514 in assay [2] (0.5%, day 2); 0.0541 in assay [2] (0.5%, day 7); 0.3243 in assay [2] (0.5%, day 14); 0.5676 in assay [2] (0.5%, day 28); 1.0000 in assay [3] (0.5%, day 0); 0.0609 in assay [3] (0.5%, day 2). Further, the Relative colony counts in assay [3] (0.5%, day 7) is on record as 0.0065; in assay [3] (0.5%, day 14) it was 0.0013; in assay [3] (0.5%, day 28), 0.0000. Also, the Colony counts was 130 cfu/g formulation in assay [1] (0.5%, day 7); 10 cfu/g formulation in assay [1] (0.5%, day 14); 10 cfu/g formulation in assay [1] (0.5%, day 28); 200.000 cfu/g formulation in assay [2] (0.5%, day 7); 140.000 cfu/g formulation in assay [3] (0.5%, day 2); 15.000 cfu/g formulation in assay [3] (0.5%, day 7). Also, the Colony counts in assay [3] (0.5%, day 14) was determined as 3.100 cfu/g formulation; in assay [3] (0.5%, day 28) it was 10 cfu/g formulation.
For `CCCCOC(=O)C(C)O` (stereo not shown) [BuL, butyl lactate], the Relative colony counts is on record as 1.0000 in assay [4] (1.25%, day 0); 0.3083 in assay [4] (1.25%, day 2); 0.0002 in assay [4] (1.25%, day 7); 0.0000 in assay [4] (1.25%, day 14); 0.0000 in assay [4] (1.25%, day 28); 1.0000 in assay [2] (1.25%, day 0). Further, the Relative colony counts in assay [2] (1.25%, day 2) turned out to be 0.2517; in assay [2] (1.25%, day 7) it was 0.5517; in assay [2] (1.25%, day 14), 0.3793; in assay [2] (1.25%, day 28) it was 0.0517; in assay [3] (1.25%, day 0), 1.0000; in assay [3] (1.25%, day 2) it was 0.0041. Besides, the Relative colony counts in assay [3] (1.25%, day 7) was 0.0000; in assay [3] (1.25%, day 14) it was 0.0000; in assay [3] (1.25%, day 28) it was 0.0000. Also, the Colony counts in assay [4] (1.25%, day 2) amounted to 740.000 cfu/g formulation; in assay [4] (1.25%, day 7), 430 cfu/g formulation; in assay [4] (1.25%, day 14) it was 10 cfu/g formulation; in assay [4] (1.25%, day 28) it was 10 cfu/g formulation; in assay [2] (1.25%, day 2) it was 730.000 cfu/g formulation; in assay [2] (1.25%, day 28) it was 150.000 cfu/g formulation. Also, the Colony counts in assay [3] (1.25%, day 2) amounted to 13.000 cfu/g formulation; in assay [3] (1.25%, day 7), 10 cfu/g formulation; in assay [3] (1.25%, day 14), 10 cfu/g formulation; in assay [3] (1.25%, day 28), 10 cfu/g formulation.
With `COc1ccc(C=O)cc1` [AAld, p-anisic aldehyde], the Relative colony counts in assay [2] (0.5%, day 0) was determined as 1.0000; in assay [2] (0.5%, day 2), 0.1931; in assay [2] (0.5%, day 7), 0.0483; in assay [2] (0.5%, day 14) it was 0.0007; in assay [2] (0.5%, day 28), 0.0000. The Colony counts is on record as 560.000 cfu/g formulation in assay [2] (0.5%, day 2); 140.000 cfu/g formulation in assay [2] (0.5%, day 7); 2.100 cfu/g formulation in assay [2] (0.5%, day 14); 15 cfu/g formulation in assay [2] (0.5%, day 28).
For the compound `CCCCCOC(=O)C(C)O` (stereo not shown) [AL, amyl lactate], the Relative colony counts amounted to 1.0000 in assay [1] (1%, day 0); 0.0072 in assay [1] (1%, day 2); 0.0000 in assay [1] (1%, day 7); 0.0000 in assay [1] (1%, day 14); 0.0000 in assay [1] (1%, day 28); 1.0000 in assay [2] (1%, day 0). The Relative colony counts is 0.0552 in assay [2] (1%, day 2); 0.4828 in assay [2] (1%, day 7); 0.1103 in assay [2] (1%, day 14); 0.0002 in assay [2] (1%, day 28). Further, the Colony counts was 21.000 cfu/g formulation in assay [1] (1%, day 2); 15 cfu/g formulation in assay [1] (1%, day 7); 10 cfu/g formulation in assay [1] (1%, day 14); 10 cfu/g formulation in assay [1] (1%, day 28); 160.000 cfu/g formulation in assay [2] (1%, day 2); 320.000 cfu/g formulation in assay [2] (1%, day 14). For the same compound, the Colony counts in assay [2] (1%, day 28) came to 660 cfu/g formulation.
In the case of `OCCCc1ccccc1` [PP, 3-phenylpropanol], the Relative colony counts in assay [4] (0.5%, day 0) is on record as 1.0000; in assay [4] (0.5%, day 2) it was 0.4583; in assay [4] (0.5%, day 7), 0.3875; in assay [4] (0.5%, day 14), 0.0129; in assay [4] (0.5%, day 28), 0.0000; in assay [1] (0.5%, day 0) it was 1.0000. The Relative colony counts in assay [1] (0.5%, day 2) came to 0.0079; in assay [1] (0.5%, day 7), 0.0000; in assay [1] (0.5%, day 14), 0.0000; in assay [1] (0.5%, day 28), 0.0000. Moreover, the Colony counts in assay [4] (0.5%, day 7) was determined as 930.000 cfu/g formulation; in assay [4] (0.5%, day 14), 31.000 cfu/g formulation; in assay [4] (0.5%, day 28) it was 10 cfu/g formulation; in assay [1] (0.5%, day 2) it was 23.000 cfu/g formulation; in assay [1] (0.5%, day 7), 80 cfu/g formulation; in assay [1] (0.5%, day 14), 10 cfu/g formulation. Besides, in assay [1] (0.5%, day 28), the Colony counts is given as 10 cfu/g formulation.
